Test results as given in patent US20230414599A1, “NICOTINAMIDE, NICOTINAMIDE PRECURSORS AND NICOTINAMIDE METABOLITES AND COMPOSITIONS THEREOF FOR REDUCING THE TIME TO RESOLUTION OF SYMPTOMS IN PATIENTS WITH COVID-19 AND OTHER VIRAL INFECTIONS” (CONARIS RESEARCH INSTITUTE AG, priority 2020, published 2023).

What was measured:
[1] = tested on: COVID-19; assay: COVit-1 trial expanded to 56 patients (nicotinamide vs silica); format: in vivo; conditions: for Absolute Risk difference of being symptom-free, 95% Confidence Level: nicotinamide vs silica; for Relative Risk of being symptom-free: silica = REF
[2] = tested on: COVID-19; assay: Pilot phase of the COVit-1 dietary intervention trial (n = 16 outpatients); format: in vivo
[3] = baseline, before supplementation, n = 28
[4] = reduction at week 2 vs baseline, generalized linear mixed model
[5] = week 2, 1,000 mg/day immediate-release, n = 28
[6] = 1,000 mg/day immediate-release, n = 8, up to 21 days after positive SARS-CoV-2 test
[7] = 1,000 mg/day, n = 8, up to 21 days after positive test
[8] = only patients with symptoms persisting at week 4 queried, n = 3

NC(=O)c1cccnc1 [Nicotinamide, nicotinamide]
Chest pain, patients with symptom [1, 3]: 25.0%
Cough with sputum, patients with symptom [1, 3]: 25.0%
Cough, patients with symptom [1, 3]: 71.4%
Diarrhoea, patients with symptom [1, 3]: 28.6%
Fatigue, patients with symptom [1, 3]: 82.1%
Fever, patients with symptom [1, 3]: 50.0%
Head cold (rhinorrhoea), patients with symptom [1, 3]: 78.6%
Headache, patients with symptom [1, 3]: 78.6%
Impaired sense of smell, patients with symptom [1, 3]: 60.7%
Impaired sense of taste, patients with symptom [1, 3]: 64.3%
Joint pain, patients with symptom [1, 3]: 35.7%
Loss of appetite, patients with symptom [1, 3]: 42.9%
Muscle pain, patients with symptom [1, 3]: 50.0%
Other (individually reported) symptoms, patients with symptom [1, 3]: 28.6%
Reduced physical performance, patients with symptom [1, 3]: 82.1%
Shortness of breath, patients with symptom [1, 3]: 28.6%
Sore throat, patients with symptom [1, 3]: 35.7%
Vomiting, patients with symptom [1, 3]: 3.6%
Loss of appetite, OR estimate nicotinamide vs. silica ([1]; reduction at week 2 vs baseline, footnote: OR very high): >>^‡
Vomiting, OR estimate nicotinamide vs. silica ([1]; reduction at week 2 vs baseline, footnote: OR very high (unstable due to the small sample)): >>^‡‡
Chest pain, OR estimate nicotinamide vs. silica [1, 4]: 12.7
Cough with sputum, OR estimate nicotinamide vs. silica [1, 4]: 4.64
Cough, OR estimate nicotinamide vs. silica [1, 4]: 1.01
Diarrhoea, OR estimate nicotinamide vs. silica [1, 4]: 0.84
Fatigue, OR estimate nicotinamide vs. silica [1, 4]: 2.72
Fever, OR estimate nicotinamide vs. silica [1, 4]: 1.40
Head cold (rhinorrhoea), OR estimate nicotinamide vs. silica [1, 4]: 1.41
Headache, OR estimate nicotinamide vs. silica [1, 4]: 1.27
Impaired sense of smell, OR estimate nicotinamide vs. silica [1, 4]: 2.05
Impaired sense of taste, OR estimate nicotinamide vs. silica [1, 4]: 1.24
Joint pain, OR estimate nicotinamide vs. silica [1, 4]: 2.74
Muscle pain, OR estimate nicotinamide vs. silica [1, 4]: 1.09
Other (individually reported) symptoms, OR estimate nicotinamide vs. silica [1, 4]: 1.07
Reduced physical performance, OR estimate nicotinamide vs. silica [1, 4]: 1.19
Shortness of breath, OR estimate nicotinamide vs. silica [1, 4]: 1.45
Sore throat, OR estimate nicotinamide vs. silica [1, 4]: 9.25
Chest pain, patients with symptom [1, 5]: 3.9%
Cough with sputum, patients with symptom [1, 5]: 3.9%
Cough, patients with symptom [1, 5]: 19.2%
Diarrhoea, patients with symptom [1, 5]: 7.7%
Fatigue, patients with symptom [1, 5]: 30.8%
Fever, patients with symptom [1, 5]: 3.9%
Head cold (rhinorrhoea), patients with symptom [1, 5]: 19.2%
Headache, patients with symptom [1, 5]: 19.2%
Impaired sense of smell, patients with symptom [1, 5]: 23.1%
Impaired sense of taste, patients with symptom [1, 5]: 23.1%
Joint pain, patients with symptom [1, 5]: 3.9%
Loss of appetite, patients with symptom [1, 5]: 0.0%
Muscle pain, patients with symptom [1, 5]: 3.9%
Other (individually reported) symptoms, patients with symptom [1, 5]: 15.4%
Reduced physical performance, patients with symptom [1, 5]: 34.6%
Shortness of breath, patients with symptom [1, 5]: 26.9%
Sore throat, patients with symptom [1, 5]: 3.9%
Vomiting, patients with symptom [1, 5]: 0.0%
Symptom-free, % ([1]; week 2, all COVID-19 patients, n = 28, intention to treat): 35.7%
Absolute Risk difference of being symptom-free, 95% Confidence Level ([1]; week 2, all patients): 21.4 (−0.6; 43.4) %
Relative Risk of being symptom-free ([1]; week 2, all patients): 2.50
Symptom-free, % ([1]; week 2, female patients, n = 17): 47.1%
Absolute Risk difference of being symptom-free, 95% Confidence Level ([1]; week 2, female patients): 35.9 (8.1-63.8) ^ %
Relative Risk of being symptom-free ([1]; week 2, female patients): 4.24
Symptom-free, % ([1]; week 2, male patients, n = 11): 18.2%
Absolute Risk difference of being symptom-free, 95% Confidence Level ([1]; week 2, male patients): 1.8 (−35.5; 31.9) %
Relative Risk of being symptom-free ([1]; week 2, male patients): 0.91
Time from diagnosis to symptom-free, median ([1]; week 2 analysis, all patients): 11.0 days
Time from diagnosis to symptom-free, median ([1]; week 2 analysis, female patients): 10.5 days
Time from diagnosis to symptom-free, median ([1]; week 2 analysis, male patients): 13.0 days
Symptom-free, % ([1]; week 4, all COVID-19 patients, n = 28, intention to treat): 39.3%
Absolute Risk difference of being symptom-free, 95% Confidence Level ([1]; week 4, all patients): −3.57 (−22.2; 29.3) %
Relative Risk of being symptom-free ([1]; week 4, all patients): 0.92
Symptom-free, % ([1]; week 4, female patients, n = 17): 52.9%
Absolute Risk difference of being symptom-free, 95% Confidence Level ([1]; week 4, female patients): 2.94 (−30.2; 36.1) %
Relative Risk of being symptom-free ([1]; week 4, female patients): 1.06
Symptom-free, % ([1]; week 4, male patients, n = 11): 18.2%
Absolute Risk difference of being symptom-free, 95% Confidence Level ([1]; week 4, male patients): −0.12 (−48.2; 24.6) %
Relative Risk of being symptom-free ([1]; week 4, male patients): 0.61
Median time to resolution of symptoms compared to silica ([1]; week 4, n = 28 per group): approximately half as long
Time from diagnosis to symptom-free, median ([1]; week 4 analysis, all patients): 13.0 days
Time from diagnosis to symptom-free, median ([1]; week 4 analysis, female patients): 13.0 days
Time from diagnosis to symptom-free, median ([1]; week 4 analysis, male patients): 16.5 days
Proportion of subjects still suffering from at least one COVID-19 symptom at or before day 21 after first testing positive ([2]; 1,000 mg nicotinamide per day for 28 days, n = 8): 50%
Patients with anorexia/loss of appetite at week 2 [2, 6]: 0
Patients with arthralgia at week 2 [2, 6]: 0
Patients with chest pain at week 2 [2, 6]: 0
Patients with cough at week 2 [2, 6]: 2
Patients with diarrhoea at week 2 [2, 6]: 1
Patients with dyspnoea/shortness of breath at week 2 [2, 6]: 2
Patients with fatigue at week 2 [2, 6]: 2
Patients with fever (total) at week 2 [2, 6]: 1
Patients with fever <38° C. at week 2 [2, 6]: 1
Patients with fever >38° C. at week 2 [2, 6]: 1
Patients with headache at week 2 [2, 6]: 1
Patients with impaired sense of smell at week 2 [2, 6]: 1
Patients with impaired sense of taste at week 2 [2, 6]: 1
Patients with myalgia at week 2 [2, 6]: 0
Patients with reduced physical performance at week 2 [2, 6]: 2
Patients with rhinorrhoea at week 2 [2, 6]: 1
Patients with sore throat/pharyngalgia at week 2 [2, 6]: 0
Patients with sputum production at week 2 [2, 6]: 1
Patients with vomiting at week 2 [2, 6]: 0
Patients requiring hospitalisation before week 2 ([2]; 1,000 mg/day, n = 8): no patient
Patients with persisting symptoms at week 4 ([2]; 1,000 mg/day, n = 8): 3
Symptom-free patients at week 4 ([2]; 1,000 mg/day, n = 8): 5
Patients with persisting symptoms at week 2 [2, 7]: 4
Symptom-free patients at week 2 [2, 7]: 4
Patients with persisting symptoms at week 6 [2, 8]: 2
Symptom-free patients at week 6 [2, 8]: 1
